# According to PMC7159882, “Polyunsaturated fatty acid analogues differentially affect cardiac NaV, CaV, and KV channels through unique mechanisms” (eLife, 2020):
# Where “and” joins values, the source holds several entries; their conditions need not be identical. Equal values may be shown once.
# Legend:
# Cav1.2/β3/α2δ = molecular target: T1, Cav1.2/β3/α2δ (Homo sapiens, UniProt Q13936); experiment: Two-electrode voltage clamp of Cav1.2/β3/α2δ expressed in Xenopus oocytes (Ba2+ as charge carrier); assay type: cell-based; settings: for ICa I/I0: relative current at 0 mV
# T1 construct: expressed in transfected cells; host or cells: Xenopus laevis oocytes (cRNA injection, Cav1.2:β3:α2δ 2:1:1 by weight)
# T1 sequence (Q13936 1-2138 isoform Q13936-20): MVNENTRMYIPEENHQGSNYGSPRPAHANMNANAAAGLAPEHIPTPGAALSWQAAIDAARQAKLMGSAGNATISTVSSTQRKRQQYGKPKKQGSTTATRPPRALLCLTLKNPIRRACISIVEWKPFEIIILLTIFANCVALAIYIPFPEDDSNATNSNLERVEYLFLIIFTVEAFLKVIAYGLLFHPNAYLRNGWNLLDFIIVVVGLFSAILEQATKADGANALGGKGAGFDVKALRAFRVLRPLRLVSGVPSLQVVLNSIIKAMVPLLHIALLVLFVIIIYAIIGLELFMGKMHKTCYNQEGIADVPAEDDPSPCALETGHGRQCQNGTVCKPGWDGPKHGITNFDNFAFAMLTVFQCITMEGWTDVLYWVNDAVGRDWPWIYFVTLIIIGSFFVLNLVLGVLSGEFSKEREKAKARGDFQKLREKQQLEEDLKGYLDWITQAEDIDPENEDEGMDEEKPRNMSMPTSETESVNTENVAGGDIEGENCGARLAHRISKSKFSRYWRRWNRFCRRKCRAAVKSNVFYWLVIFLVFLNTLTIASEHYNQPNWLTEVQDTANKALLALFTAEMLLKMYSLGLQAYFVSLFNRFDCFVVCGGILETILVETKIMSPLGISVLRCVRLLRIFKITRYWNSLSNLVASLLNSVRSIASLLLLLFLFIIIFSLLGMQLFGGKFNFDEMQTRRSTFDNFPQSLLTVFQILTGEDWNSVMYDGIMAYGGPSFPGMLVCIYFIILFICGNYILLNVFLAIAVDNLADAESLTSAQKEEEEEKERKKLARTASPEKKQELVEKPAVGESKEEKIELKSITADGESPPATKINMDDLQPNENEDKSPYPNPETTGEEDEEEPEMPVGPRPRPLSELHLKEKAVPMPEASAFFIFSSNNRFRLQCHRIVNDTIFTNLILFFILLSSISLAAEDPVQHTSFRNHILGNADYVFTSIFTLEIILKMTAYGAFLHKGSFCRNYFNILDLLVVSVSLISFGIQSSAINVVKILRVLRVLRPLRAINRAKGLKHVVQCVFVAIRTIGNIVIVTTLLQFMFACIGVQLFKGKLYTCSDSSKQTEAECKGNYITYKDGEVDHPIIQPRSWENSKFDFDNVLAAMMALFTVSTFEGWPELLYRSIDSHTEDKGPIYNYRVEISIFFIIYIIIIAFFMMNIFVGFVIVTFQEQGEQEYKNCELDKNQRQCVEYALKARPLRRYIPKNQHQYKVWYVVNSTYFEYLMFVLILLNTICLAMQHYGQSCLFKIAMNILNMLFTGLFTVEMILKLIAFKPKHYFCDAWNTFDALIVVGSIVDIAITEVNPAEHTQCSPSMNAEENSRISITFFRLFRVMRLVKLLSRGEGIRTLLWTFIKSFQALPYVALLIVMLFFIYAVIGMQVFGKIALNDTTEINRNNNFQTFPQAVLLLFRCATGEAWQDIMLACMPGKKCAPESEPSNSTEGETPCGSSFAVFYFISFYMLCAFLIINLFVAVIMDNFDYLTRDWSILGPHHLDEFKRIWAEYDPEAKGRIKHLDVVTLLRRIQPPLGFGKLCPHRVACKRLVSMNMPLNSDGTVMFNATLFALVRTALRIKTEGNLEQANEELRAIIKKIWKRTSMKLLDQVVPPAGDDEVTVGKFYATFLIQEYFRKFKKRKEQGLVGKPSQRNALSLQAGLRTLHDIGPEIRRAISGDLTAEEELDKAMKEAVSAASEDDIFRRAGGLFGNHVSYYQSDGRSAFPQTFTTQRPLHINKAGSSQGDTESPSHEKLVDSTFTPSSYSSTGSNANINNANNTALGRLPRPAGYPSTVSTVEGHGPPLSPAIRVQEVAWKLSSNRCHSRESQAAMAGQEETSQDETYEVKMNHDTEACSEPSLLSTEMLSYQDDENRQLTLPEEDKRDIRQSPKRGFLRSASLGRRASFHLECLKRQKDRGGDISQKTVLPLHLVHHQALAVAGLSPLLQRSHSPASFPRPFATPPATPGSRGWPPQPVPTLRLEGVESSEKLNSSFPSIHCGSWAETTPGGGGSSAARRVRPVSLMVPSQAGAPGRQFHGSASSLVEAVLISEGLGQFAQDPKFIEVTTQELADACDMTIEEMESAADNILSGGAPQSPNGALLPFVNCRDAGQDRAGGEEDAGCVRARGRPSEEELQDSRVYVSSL
# T1 sequence (P54286 whole entry partner): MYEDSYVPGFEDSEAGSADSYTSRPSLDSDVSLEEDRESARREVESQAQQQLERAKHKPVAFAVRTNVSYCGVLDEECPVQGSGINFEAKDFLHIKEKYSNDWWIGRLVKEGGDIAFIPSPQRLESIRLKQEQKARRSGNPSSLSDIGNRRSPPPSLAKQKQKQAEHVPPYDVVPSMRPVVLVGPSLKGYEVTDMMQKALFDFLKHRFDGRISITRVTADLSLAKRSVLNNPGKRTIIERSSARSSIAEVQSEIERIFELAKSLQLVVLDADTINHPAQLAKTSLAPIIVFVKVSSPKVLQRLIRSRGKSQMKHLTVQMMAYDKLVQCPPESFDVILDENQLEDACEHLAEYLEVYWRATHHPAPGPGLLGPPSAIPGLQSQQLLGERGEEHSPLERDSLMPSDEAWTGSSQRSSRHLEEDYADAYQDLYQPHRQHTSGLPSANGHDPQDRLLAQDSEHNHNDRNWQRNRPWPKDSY
# T1 sequence (P13806 27-960 partner): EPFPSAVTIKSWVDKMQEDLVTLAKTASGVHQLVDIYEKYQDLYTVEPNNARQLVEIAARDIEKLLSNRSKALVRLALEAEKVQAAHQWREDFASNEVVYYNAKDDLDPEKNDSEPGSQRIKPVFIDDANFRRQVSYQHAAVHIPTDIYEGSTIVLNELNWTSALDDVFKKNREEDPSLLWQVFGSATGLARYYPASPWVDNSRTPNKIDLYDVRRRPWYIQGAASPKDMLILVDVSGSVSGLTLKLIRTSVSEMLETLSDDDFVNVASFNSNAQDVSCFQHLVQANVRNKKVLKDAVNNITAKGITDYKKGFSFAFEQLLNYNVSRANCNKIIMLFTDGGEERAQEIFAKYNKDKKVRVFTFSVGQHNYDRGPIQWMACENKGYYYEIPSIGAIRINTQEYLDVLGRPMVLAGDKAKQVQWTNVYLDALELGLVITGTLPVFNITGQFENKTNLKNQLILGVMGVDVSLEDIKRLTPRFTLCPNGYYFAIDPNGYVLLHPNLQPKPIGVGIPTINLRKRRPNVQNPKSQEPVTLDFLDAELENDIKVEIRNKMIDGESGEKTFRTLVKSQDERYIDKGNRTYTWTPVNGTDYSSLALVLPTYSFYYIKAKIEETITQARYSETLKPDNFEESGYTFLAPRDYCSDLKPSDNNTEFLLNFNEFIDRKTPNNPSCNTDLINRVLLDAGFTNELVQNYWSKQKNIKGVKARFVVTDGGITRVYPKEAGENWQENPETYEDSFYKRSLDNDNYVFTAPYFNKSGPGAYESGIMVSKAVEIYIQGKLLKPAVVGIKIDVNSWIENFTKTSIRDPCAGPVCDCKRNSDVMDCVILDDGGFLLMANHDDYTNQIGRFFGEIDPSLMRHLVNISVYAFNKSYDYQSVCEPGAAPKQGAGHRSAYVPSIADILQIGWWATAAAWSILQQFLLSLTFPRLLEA
# T1 sequence (P13806 961-1106 partner): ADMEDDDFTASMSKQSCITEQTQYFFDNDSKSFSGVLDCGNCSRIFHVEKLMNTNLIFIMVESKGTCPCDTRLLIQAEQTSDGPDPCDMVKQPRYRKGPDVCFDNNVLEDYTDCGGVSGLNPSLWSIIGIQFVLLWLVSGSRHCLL
# Procedure: (§1) Molecular Biology cRNA encoding Kv7.1 (UniProt: P51787), KCNE1 (UniProt: P15382.1), Nav1.5 (UniProt: Q14524.1), Nav β1 (UniProt: […]), Nav β3 (UniProt: […]), Cav1.2 (GenBank: CAA84346), Cav β3 (Uniprot: P54286), Cav β2 (Uniprot: P54288), and Cav α2δ (Uniprot: P13806) were transcribed using the mMessage mMachine T7 kit (Ambion). 50 ng of cRNA was injected into defolliculated Xenopus laevis oocytes (Ecocyte, Austin, TX): For Kv7.1/KCNE1 channel expression, we injected a 3:1, weight:weight (Kv7.1:KCNE1) cRNA ratio. For Nav1.5 channel expression, we injected a 2:1, weight:weight (Nav1.5:β1) cRNA ratio. For Cav1.2 channel expression, we injected a 2:1:1, weight:weight (Cav1.2:β3:α2δ) cRNA ratio. The exact stoichiometry for channel macromolecular complexes, including α -subunits and auxiliary subunits is not clear for many ion channels. For example, there have been multiple reported stoichiometries for Kv7.1:KCNE1 determined in heterologous expression systems with some groups reporting flexible stoichiometry of 4 Kv7.1: 1–4 KCNE1 and others reporting a fixed stoichiometry of 4 Kv7.1: 2 KCNE1 ([Murray et al., 2016]; [Nakajo et al., 2010]). The ratios of cRNA of α- and auxiliary subunits that we injected in Xenopus laevis oocytes are such that all α-subunits are assumed to be in complex with auxiliary subunits. This allows a more homogenous population of ion channels with auxiliary subunits. One caveat to expressing ion channels as macromolecular complexes is that there are many other auxiliary subunits that could associate with the channel α -subunit that are present in cardiomyocytes and have the potential to alter PUFA-induced effects, but that are not being co-expressed in our experiments. In this work, we are co-expressing some of the auxiliary subunits that have been primarily reported to associate with their respective α -subunits in cardiomyocytes. Following cRNA injection, cells were incubated for 72–96 hr in standard ND96 solution (96 mM NaCl, 2 mM KCl, 1 mM MgCl2, 1.8 mM CaCl2, 5 mM HEPES; pH = 7.5) containing 1 mM pyruvate at 16°C prior to electrophysiological recordings.
# (§2) Xenopus laevis oocytes were recorded in the two-electrode voltage clamp (TEVC) configuration. Recording pipettes were filled with 3 M KCl. The recording chamber was filled with ND96 (96 mM NaCl, 2 mM KCl, 1 mM MgCl2, 1.8 mM CaCl2, 5 mM HEPES; pH 7.5). For Cav1.2/β3/α2δ channel recordings, Xenopus oocytes were injected with 50 nl of 100 mM EGTA and incubated at 10°C for 30 min prior to electrophysiological recordings in order to sequester cytosolic calcium. In addition, Cav1.2/β3/α2δ channel recordings were done in Ca^2+-free solutions, using Ba^2+ as the charge carrier, to prevent calcium-dependent inactivation of Cav1.2/β3/α2δ channels. Calcium-dependent inactivation was not studied in this work, due to the presence of large calcium-activated chloride currents present in Xenopus laevis oocytes. PUFAs were obtained from Cayman Chemical (Ann Arbor, MI.) or synthesized in house (Linköping, Sweden) through methods previously described ([Bohannon et al., 2020]) and kept at −20 °C as 100 mM stock solutions in ethanol. Serial dilutions of the different PUFAs were prepared from stocks to make 0.2 μM, 0.7 μM, 2 μM, 7 μM, and 20 μM concentrations in ND96 solutions (pH = 7.5). PUFAs were perfused into the recording chamber using the Rainin Dynamax Peristaltic Pump (Model RP-1) (Rainin Instrument Co., Oakland, CA. USA).
# (§3) Electrophysiological recordings were obtained using Clampex 10.3 software (Axon, pClamp, Molecular Devices). To measure Kv7.1/KCNE1 currents we apply PUFAs as the membrane potential is stepped every 30 s from −80 mV to 0 mV for 5 s before stepping to −40 mV and back to −80 mV to ensure that the PUFA effects on the current at 0 mV reached steady state. A voltage-step protocol was used to measure the current vs. voltage (I-V) relationship before PUFA application and after the PUFA effects had reached steady state for each concentration of PUFA. […]
# Nav1.5/β1 = molecular target: T2, Nav1.5/β1 (Homo sapiens, UniProt Q14524); experiment: Two-electrode voltage clamp of Nav1.5/β1 expressed in Xenopus oocytes; assay type: cell-based; settings: for INa I/I0: relative current at 0 mV
# T2 construct: Nav1.5 (UniProt: Q14524.1); expressed in transfected cells; host or cells: Xenopus laevis oocytes (cRNA injection, Nav1.5:β1 2:1 by weight)
# Procedure: as §1, §2, §3
# Herg channels = tested on: Herg channels; parameters: method as in B.H. Bentzen and H. Duff, unpublished data; settings: up to 10 μM; heterologous systems; ref B.H. Bentzen and H. Duff, unpublished data; cited from earlier work
smiles,measurement,setting,value
"CC/C=C\C/C=C\C/C=C\C/C=C\C/C=C\C/C=C\CCC(=O)NCC(=O)O [DHA-glycine, docosahexaenoyl glycine]",Gmax/Gmax0,Cav1.2/β3/α2δ; 0.2 μM,1.0 ± 0.1
same,ΔV0.5 (voltage dependence of inactivation),Cav1.2/β3/α2δ; 0.2 μM,6.1 ± 3.5 mV
same,ICa I/I0,Cav1.2/β3/α2δ; 0.2 μM,0.9 ± 0.1
same,Gmax/Gmax0,Cav1.2/β3/α2δ; 0.7 μM,1.1 ± 0.1
same,ΔV0.5 (voltage dependence of inactivation),Cav1.2/β3/α2δ; 0.7 μM,6.4 ± 4.3 mV
same,ICa I/I0,Cav1.2/β3/α2δ; 0.7 μM,1.0 ± 0.1
same,Gmax/Gmax0,Cav1.2/β3/α2δ; 2 μM,1.1 ± 0.1
same,ΔV0.5 (voltage dependence of inactivation),Cav1.2/β3/α2δ; 2 μM,6.1 ± 4.2 mV
same,ICa I/I0,Cav1.2/β3/α2δ; 2 μM,0.9 ± 0.1
same,Gmax/Gmax0,Cav1.2/β3/α2δ; 7 μM,1.0 ± 0.1
same,ΔV0.5 (voltage dependence of inactivation),Cav1.2/β3/α2δ; 7 μM,7.6 ± 3.1 mV
same,Gmax/Gmax0,Cav1.2/β3/α2δ; 20 μM,1.0 ± 0.1
same,ΔV0.5 (voltage dependence of inactivation),Cav1.2/β3/α2δ; 20 μM,5.2 ± 4.4 mV
same,ICa I/I0,Cav1.2/β3/α2δ; 20 μM,0.9 ± 0.1
same,Gmax/Gmax0,Nav1.5/β1; 0.2 μM,1.0 ± 0.02
same,ΔV0.5 (voltage dependence of inactivation),Nav1.5/β1; 0.2 μM,0.3 ± 0.1 mV
same,INa I/I0,Nav1.5/β1; 0.2 μM,1.0 ± 0.02
same,Gmax/Gmax0,Nav1.5/β1; 0.7 μM,1.0 ± 0.03
same,ΔV0.5 (voltage dependence of inactivation),Nav1.5/β1; 0.7 μM,-0.2 ± 0.6 mV
same,INa I/I0,Nav1.5/β1; 0.7 μM,1.0 ± 0.04
same,Gmax/Gmax0,Nav1.5/β1; 2 μM,1.0 ± 0.04
same,ΔV0.5 (voltage dependence of inactivation),Nav1.5/β1; 2 μM,-0.3 ± 0.5 mV
same,INa I/I0,Nav1.5/β1; 2 μM,1.1 ± 0.05
same,Gmax/Gmax0,Nav1.5/β1; 7 μM,1.0 ± 0.04
same,ΔV0.5 (voltage dependence of inactivation),Nav1.5/β1; 7 μM,−2.4 ± 0.6 mV and -2.4 ± 0.7 mV
same,Gmax/Gmax0,Nav1.5/β1; 20 μM,0.5 ± 0.1
same,ΔV0.5 (voltage dependence of inactivation),Nav1.5/β1; 20 μM,-11.5 ± 1.7 mV
same,INa I/I0,Nav1.5/β1; 20 μM,0.7 ± 0.1
same,effects on currents through Herg channels,Herg channels,neither N-AT nor DHA-glycine up to 10 μM had any significant effects
